Results published in article PMC11944515, “Host-Mediated Antimicrobial Effects and NLRP3 Inflammasome Modulation by Caulerpin and Its Derivatives in Macrophage Models of Mycobacterial Infections” (Microorganisms, 2025).
Where two headings read alike, the source gives them in different places.

How the values were obtained:
[1] = test system: TNF-α; test: TNF-α production in M. smegmatis-infected RAW 264.7 cells (ELISA); format: cell-based, murine; details: 15 μM, 24 h, M. smegmatis MOI 1:1, vs infected control
Experimental: (§1) IL-1β, IL-10, and TNF-α levels in the culture supernatant were determined by sandwich enzyme-linked immunosorbent assay as per the manufacturer’s instructions. Optical density was read at 450 nm using a microplate spectrophotometer (microplate reader EL800, BioTek, Winooski, VT, USA).

[2] = test system: M. tuberculosis H37Ra; test: M. tuberculosis susceptibility by CFU enumeration; format: cell-based, Mycobacterium tuberculosis; details: H37Ra, 48 h, CFU
Experimental: Next, CP, CA, and DE were diluted in Middlebrook 7H9 plus 10% OADC for the cellular susceptibility assay with M. tuberculosis H37Ra to yield concentrations up to 15 µM, 30 µM, and 15 µM, respectively. RIF at 0.03 µM was used as a positive control. The final DMSO concentration in all wells was 2.5%. The M. tuberculosis suspension was diluted in 7H9 plus 10% OADC to achieve an optical density of 0.006 at 595 nm, and 100 μL was then added to each well. Plates were covered, sealed with parafilm, and incubated at 37 °C for 48 h. After incubation, aliquots were removed, diluted, and plated in Middlebrook 7H10 agar plus 10% OADC. Plates were incubated at 37 °C for 4 weeks, and CFU were counted. CFU numbers were expressed as log10(CFU/mL).

[3] = test system: RAW 264.7 cells; test: Direct effects on RAW 264.7 cell viability (MTT); format: cell-based, murine
Experimental: The direct effects of CP and its analogues on RAW 264.7 viability were evaluated using the MTT method. RAW 264.7 cells were seeded at 1 × 10^4 cells/well (for 24 h incubation) and 5 × 10^3 cells/well (for 48 h incubation) and incubated overnight to allow adhesion. The culture medium was carefully aspirated and replaced with 100 μL DMEM plus 100 μL of test compound solutions, yielding final concentrations ranging from 3.25 to 30 µM (DMSO 1%, v/v). After 24 or 48 h of exposure to test compounds, cells were incubated with MTT (0.5 mg/mL) for 3 h. The resulting formazan crystals were dried, dissolved in DMSO, and absorbance was measured at 570 nm using a microplate reader (EL800, BioTek, Winooski, VT, USA). The precipitated purple formazan crystals were directly proportional to the number of metabolically active viable cells. The cell viability was then calculated as: Cell viability (%) = (Sample absorbance/Control absorbance) × 100. Data were expressed as mean of cell viability ± standard error of the mean from three to four independent experiments performed in triplicate.

[4] = test system: M. tuberculosis H37Ra in RAW 264.7 macrophages; test: Therapeutic potential in M. tuberculosis-infected RAW 264.7 cells (CFU); format: cell-based, Mycobacterium tuberculosis; details: for effect on M. tuberculosis in RAW 264.7: DE 15 μM, CA 30 and 15 μM, 24 h and 48 h
Experimental: For the infection test with M. tuberculosis H37Ra, RAW 264.7 were seeded in 96-well culture plates at a density of 4 × 10^3 cells/well in DMEM medium (with 10% FBS, without antibiotics) and incubated overnight at 37 °C with 5% CO2 [20]. Infection of RAW 264.7 cells with M. tuberculosis was performed at a multiplicity of infection of 1:1 for 3 h at 37 °C with 5% CO2. The medium with non-internalized bacteria was removed and infected cells were then treated with the tested substances in DMEM:CP (15 µM, 7.5 µM, and 3.25 µM), CA (30 µM), and DE (15 µM) for 24 h and CA (30 µM and 15 µM) and DE (15 µM) for 48 h. Macrophages were lysed after incubations with 0.1% Triton–X100, and these suspensions were diluted and plated on Middlebrook 7H10 plus 10% OADC. Plates were incubated for 4 weeks at 37 °C and data were expressed as log10(CFU/well).

[5] = test system: Vero E6 cells; details: cited from earlier work
[6] = test system: IL-1β; test: IL-1β production in M. smegmatis-infected RAW 264.7 cells (ELISA); format: cell-based, murine; details: 15 μM, 24 h, M. smegmatis MOI 1:1, vs infected control
Experimental: as §1

[7] = test system: NLRP3 inflammasome; test: NLRP3 evaluation by flow cytometry in M. smegmatis-infected RAW 264.7 cells; format: cell-based, murine; details: 15 μM, 24 h
Experimental: Cells were placed in a 96-well plate (U bottom) 24 h after treatment in culture. Then, cells were fixed by Cytofix (BD Cytofix™, Franklin Lakes, NJ, USA) and permeabilized by Perm Buffer (BD Phosflow™, San Diego, CA, USA) for 30 min each. Cells were subsequently labeled with an unconjugated anti-NLRP3 antibody, according to the manufacturer’s instructions (BD Biosciences, San Diego, CA, USA). Finally, anti-rat IgG2a (PE) was added for NLRP3 analysis and cells were suspended in PBS and evaluated in a BD Accuri C6 Plus flow cytometer.
First, macrophages were visualized using size (FSC) and granularity (SSC) parameters, and a gate was performed in the cell population. The macrophages were then analyzed by measuring the median fluorescence intensity (MFI) corresponding to antibody labeling. MFI data were normalized to the control group, which was set to 100%.

[8] = test system: HepG2 cells; set-up: method as in PMID 32579063; details: 15.80 to 500 µg/mL over 24 h; cited from earlier work
[9] = test system: Mycobacterium smegmatis mc2155; test: M. smegmatis susceptibility by CFU enumeration; format: cell-based; details: 24 h incubation, CFU
[10] = test system: IFN-γ, IL-6, and TNF-α levels; set-up: method as in PMID 30205459; details: doses of 40 mg/kg, murine model of peritonitis and ulcerative colitis; cited from earlier work
[11] = test system: IL-8, IL-6, and TNF-α cytokines; set-up: method as in PMID 34884957; details: pretreatment, compared with untreated control; cited from earlier work

SMILES	reduction in TNF-α production [1] [%]	inhibitory concentration against M. tuberculosis [2]	effect on RAW 264.7 cell viability ([3]; 24 h incubation, 3.25 to 30 µM)	effect on RAW 264.7 cell viability ([3]; 48 h incubation)	effect on M. tuberculosis in RAW 264.7, lower concentrations ([4]; 7.5 µM and 3.25 µM, 24 h)	decrease in CFU counts, M. tuberculosis in RAW 264.7 ([4]; 15 μM, 24 h of incubation) [log10]	effect on Vero E6 viability ([5]; 589.3 µg/mL)	effect on Vero E6 viability ([5]; 50 to 1000 µM for 72 h)	reduction in IL-1β production [6] [%]	reduction of NLRP3 expression (MFI) [7] [%]	anticancer activity in HepG2 cells [8]	inhibitory concentration against M. smegmatis [9]	effect on IFN-γ, IL-6, and TNF-α levels [10]	effect on IL-8, IL-6, and TNF-α expression [11]	effect on M. tuberculosis in RAW 264.7 [4]
COC(=O)/C1=C/c2c([nH]c3ccccc23)/C(C(=O)OC)=C\c2c1[nH]c1ccccc21 [CP, Caulerpin]	34.07	greater than 15 μM	affected cell viability at the concentration of 30 μM	affected cell viability at the 2 highest concentrations tested, 15 and 30 μM	no inhibitory effect	0.250	maintained their viability	no effect on Vero E6 viability	69.35	29.12	exhibited anticancer activity in HepG2 cells	higher than 15 μM	reduced IFN-γ, IL-6, and TNF-α levels	reduced expression of IL-8, IL-6, and TNF-α cytokines	
CCOC(=O)/C1=C/c2c([nH]c3ccccc23)/C(C(=O)OCC)=C\c2c1[nH]c1ccccc21 [DE, (6E,13E)-diethyl 5,12-dihydrocycloocta[1,2-b:5,6-b′]diindole-6,13-dicarboxylate]	56.94	greater than 15 μM	affected cell viability at the concentration of 30 μM	did not affect cell viability at any concentration evaluated					59.82	39.81		higher than 15 μM			neither DE nor CA showed inhibitory effects at either timepoint
O=C(O)C1=Cc2c([nH]c3ccccc23)C(C(=O)O)=Cc2c1[nH]c1ccccc21 [CA, caulerpinic acid]		greater than 30 μM	did not affect viability at any of the concentrations tested	did not affect cell viability at any concentration evaluated								higher than 30 μM			neither DE nor CA showed inhibitory effects at either timepoint
